The data set is described as follows: Evaluation of vapor diffusion (chemical indicators in 2-meter long 4-mm inner diameter polytetrafluoroethylene tube). The note with it: 50° C., less than 10 torr, 15-minute time period. The format is physicochemical.
Setting [1] is: introduced into chamber extension.
Where [2] appears, read: introduced into process chamber.

Text: A typical diffusion apparatus for conducting these evaluations includes a stainless-steel pressure chamber which is connected to a smaller stainless-steel extension chamber. Connection is made by means of a stainless-steel tube that contains a valve for isolating vapor flow between the vacuum chamber and the chamber extension. The chamber extension contains isolated compartments that admitted molecular mobility enhancer (MME) and/or liquid or solid agent components. The vacuum chamber and the chamber extension are independently heated. […] The isolated compartments within the chamber extension were independently heated. […] The chamber extension as a whole as well as the isolated compartments within the chamber extension are connected to MME and transport moiety sources via a valve and a conduit connected to a flow controller. The chamber extension is also outfitted with a door that can be used for placing solid agent sources within the extension. The entire system (vacuum chamber and chamber extension) is connected to a vacuum system e.g., (comprising a vacuum pump) capable of reducing the pressure and vaporizing the molecular mobility enhancer and liquid or solid transport moieties.
The tube and its contents were placed in the process chamber of the diffusion system. In this test the process chamber was heated to 50° C. […] The door to the diffusion system was closed and sealed. The diffusion system was evacuated to a pressure less than 10 torr. Multiple vaporization/diffusion cycles were performed over the course of a 15-minute time period. At the end of the process the diffusion system was brought to atmosphere and the tube and its contents were removed from the process chamber.
The tube and its contents were placed in the process chamber of the diffusion system. In this test the diffusion system was heated to 50° C. […] The door to the diffusion system was closed and sealed. The diffusion system including the chamber extension was evacuated to a pressure less than 10 torr. Multiple vaporization/diffusion cycles were performed over the course of a 15-minute time period.

For the molecule `OO` [aqueous hydrogen peroxide (30 wt %), hydrogen peroxide], the “color change on chemical indicators: exposure of entire inner length of the tube to transport moiety vapor” value (from here on “color change on chemical indicators”) under setting [1] is “entire inner length of the tube had not been exposed” and the “color change on chemical indicators” value under setting [2] is given as “entire inner length of the tube had not been exposed”.

As for `CC(C)O` [isopropanol], the “color change on chemical indicators” value runs as follows: under setting [1], “entire inner length of the tube had not been exposed”; under setting [2], “entire inner length of the tube had not been exposed”.
